pIC50: −log10 of the molar value. Where two headings read alike, the source gives them in different places.
What was measured:
PC3 (prostate) = experiment: Cell growth inhibition assay (SRB), PC3; assay type: cell-based; conditions: Homo sapiens, SRB method, 96 hours incubation; for IC50: PC-3, read-out: Inhibition of cell growth (IC50, μM) by quinoxaline-piperazine compounds against human cancer cell lines: PC-3; for pIC50: PC3 (prostate), read-out: IC50, PC3
Method: (§1) OVCAR-3, MCF-7, PC3, HepG2, A549, HT-29 and MKN-45 were grown in RPMI1640 medium (Invitrogen, Carlsbad, Calif.) supplemented with 10% fetal bovine serum (‘FBS’), 1 mM sodium pyruvate, 10 mM HEPES and 100 U/ml penicillin and […] streptomycin (‘P/S’). MDA-MB-231, HCT116, UMRC2, Caki-1, PANC-1 and HEK293 cells were maintained in Dulbecco's modified Eagle's medium (‘DMEM’, Invitrogen) supplemented with 10% FBS, P/S, 10 mM HEPES and 2 mM L-glutamine. HUVEC was maintained in M199 supplemented with basic fibroblast growth factor (‘bFGF’) […] and FBS 20%. All cells were incubated at 37° C. under humidified 5% CO2.
(§2) The growth inhibition of the substituted quinoxalin-piperazine compounds against a variety of human tumor cells was evaluated. The relative importance of particular substituent groups on the compounds was also studied. The substituted piperazine derivative compounds, prepared as described above, were tested, along with DMSO as a control.
(§3) The growth inhibition assay of various compounds against human tumor cell lines was performed using the Sulforhodamine B (‘SRB’) method (Skehan et al., J. National Cancer Institute, 1990, 82, 1107-1112). […] Triplicate wells were used for each treatment. The cells were incubated with the various compounds for 96 hours at 37° C. in a humidified 5% CO2 atmosphere. After 96-hour incubation, cells were fixed with 10% trichloroacetic acid (‘TCA’), incubated for 1 hour at 4° C., and washed 3 times with tap water. Subsequently cells were stained with 0.4% sulforhodamine B in 1% acetic acid for 30 minutes, washed 4 times with 1% acetic acid, and air-dried again. After 5 minutes agitation in 10 mM Tris solution, the absorbance of each well was measured at 530 nm using Benchmark Plus Microplate reader (Bio-Rad Laboratories, Hercules, Calif.).
(§4) To translate the OD530 values into the number of live cells in each well, the OD530 values were compared to those on standard OD530-versus-cell number curves generated for each cell line. The percent survival was calculated using the formula: % Survival=live cell number[test]/live cell number[control]×100
(§5) The IC50 values were calculated by non-linear regression analysis.

PANC-1 (pancreas) = experiment: Cell growth inhibition assay (SRB), PANC-1; assay type: cell-based, human; conditions: Homo sapiens, SRB method, 96 hours incubation; for IC50: PANC-1, read-out: Inhibition of cell growth (IC50, μM) by quinoxaline-piperazine compounds against human cancer cell lines: PANC-1; for pIC50: PANC-1 (pancreas), read-out: IC50, PANC-1
Method: as §1, §2, §3, §4, §5

[1] = tested on: MCF-7 (breast, hormone-dependent); experiment: Cell growth inhibition assay (SRB), MCF-7; assay type: cell-based; conditions: Homo sapiens, MCF7, SRB method, 96 hours incubation; for IC50: read-out: Inhibition of cell growth (IC50, μM) by quinoxaline-piperazine compounds against human cancer cell lines: MCF7; for pIC50: MCF-7 (breast, hormone-dependent), read-out: IC50, MCF-7
Method: as §1, §2, §3, §4, §5

MDA-MB-231 (breast) = experiment: Cell growth inhibition assay (SRB), MDA-MB-231; assay type: cell-based, human; conditions: Homo sapiens, SRB method, 96 hours incubation; for IC50: MDA-MB-231, read-out: Inhibition of cell growth (IC50, μM) by quinoxaline-piperazine compounds against human cancer cell lines: MDA-MB-231; for pIC50: MDA-MB-231 (breast), read-out: IC50, MDA-MB-231
Method: as §1, §2, §3, §4, §5

HepG2 (liver) = experiment: Cell growth inhibition assay (SRB), HepG2; assay type: cell-based; conditions: Homo sapiens, SRB method, 96 hours incubation; for IC50: HepG2, read-out: Inhibition of cell growth (IC50, μM) by quinoxaline-piperazine compounds against human cancer cell lines: HepG2; for pIC50: HepG2 (liver), read-out: IC50, HepG2
Method: as §1, §2, §3, §4, §5

OVCAR-3 (ovary) = experiment: Cell growth inhibition assay (SRB), OVCAR-3; assay type: cell-based; conditions: Homo sapiens, SRB method, 96 hours incubation; for IC50: OVCAR-3, OVCAR3, read-out: Inhibition of cell growth (IC50, μM) by quinoxaline-piperazine compounds against human cancer cell lines: OVCAR3; for pIC50: OVCAR-3 (ovary), read-out: IC50, OVCAR-3
Method: as §1, §2, §3, §4, §5

HCT116 (colon) = experiment: Cell growth inhibition assay (SRB), HCT116; assay type: cell-based; conditions: Homo sapiens, HCT-116, SRB method, 96 hours incubation; for IC50: HCT116, read-out: Inhibition of cell growth (IC50, μM) by quinoxaline-piperazine compounds against human cancer cell lines: HCT116; for pIC50: HCT116 (colon), read-out: IC50, HCT116
Method: as §1, §2, §3, §4, §5

A549 (lung) = experiment: Cell growth inhibition assay (SRB), A549; assay type: cell-based; conditions: Homo sapiens, SRB method, 96 hours incubation; for IC50: A549, read-out: Inhibition of cell growth (IC50, μM) by quinoxaline-piperazine compounds against human cancer cell lines: A549; for pIC50: A549 (lung), read-out: IC50, A549
Method: as §1, §2, §3, §4, §5

HT-29 (colon) = experiment: Cell growth inhibition assay (SRB), HT-29; assay type: cell-based; conditions: Homo sapiens, SRB method, 96 hours incubation; for IC50: HT-29, HT29, read-out: Inhibition of cell growth (IC50, μM) by quinoxaline-piperazine compounds against human cancer cell lines: HT29; for pIC50: HT-29 (colon), read-out: IC50, HT-29
Method: as §1, §2, §3, §4, §5

MKN-45 (stomach) = experiment: Cell growth inhibition assay (SRB), MKN-45; assay type: cell-based; conditions: Homo sapiens, SRB method, 96 hours incubation; for IC50: MKN-45, MKN45, read-out: Inhibition of cell growth (IC50, μM) by quinoxaline-piperazine compounds against human cancer cell lines: MKN45; for pIC50: MKN-45 (stomach), read-out: IC50, MKN-45
Method: as §1, §2, §3, §4, §5

Caki-1 (kidney) = experiment: Cell growth inhibition assay (SRB), Caki-1; assay type: cell-based; conditions: Homo sapiens, SRB method, 96 hours incubation; for IC50: Caki-1, read-out: Inhibition of cell growth (IC50, μM) by quinoxaline-piperazine compounds against human cancer cell lines: Caki-1; for pIC50: Caki-1 (kidney), read-out: IC50, Caki-1
Method: as §1, §2, §3, §4, §5

UMRC2 (kidney) = experiment: Cell growth inhibition assay (SRB), UMRC2; assay type: cell-based, human; conditions: Homo sapiens, SRB method, 96 hours incubation; for IC50: UMRC2, read-out: Inhibition of cell growth (IC50, μM) by quinoxaline-piperazine compounds against human cancer cell lines: UMRC2; for pIC50: UMRC2 (kidney), read-out: IC50, UMRC2
Method: as §1, §2, §3, §4, §5

| Compound | IC50 (PC3 (prostate)) | IC50 (PANC-1 (pancreas)) | IC50 [1] | IC50 (MDA-MB-231 (breast)) | IC50 (HepG2 (liver)) | IC50 (OVCAR-3 (ovary)) | IC50 (HCT116 (colon)) | IC50 (A549 (lung)) | IC50 (HT-29 (colon)) | IC50 (MKN-45 (stomach)) | pIC50 (PC3 (prostate)) | pIC50 (PANC-1 (pancreas)) | pIC50 [1] | pIC50 (MDA-MB-231 (breast)) | pIC50 (HepG2 (liver)) | pIC50 (OVCAR-3 (ovary)) | pIC50 (HCT116 (colon)) | pIC50 (A549 (lung)) | IC50 (Caki-1 (kidney)) | IC50 (UMRC2 (kidney)) | further results |
| --- | --- | --- | --- | --- | --- | --- | --- | --- | --- | --- | --- | --- | --- | --- | --- | --- | --- | --- | --- | --- | --- |
| COc1cc(OC)cc(N2CCN(C(=O)Nc3nc4cc(F)ccc4nc3OC)CC2)c1 [Compound 5, 1-[(6-Fluoro-2-methoxyquinoxalin-3-yl)aminocarbonyl]-4-(3,5-dimethoxyphenyl)piperazine] | 0.021 µM | 0.021 µM | 0.025 µM | 0.012 µM | 0.019 µM | 0.012 µM | 0.019 µM | 0.021 µM | 0.021 µM | 0.02 µM | – | – | – | – | – | – | – | – | 0.011 µM | 0.013 µM | – |
| COc1cc(OC)cc(N2CCN(C(=O)Nc3nc4cc(Cl)ccc4nc3OC)CC2)c1 [Compound 26, 1-[(6-Chloro-2-methoxyquinoxalin-3-yl)aminocarbonyl]-4-(3,5-dimethoxyphenyl)piperazine] | 0.076 µM | 0.098 µM | 0.076 µM | 0.05 µM | 0.063 µM | 0.042 µM | 0.068 µM | 0.073 µM | 0.079 µM | 0.064 µM | – | – | – | – | – | – | – | – | 0.053 µM | 0.065 µM | – |
| COc1ccc2nc(OC)c(NC(=O)N3CCN(c4cccc(C)c4)CC3)nc2c1 [Compound 71, 1-[(2,6-Dimethoxyquinoxalin-3-yl)aminocarbonyl]-4-(3-methylphenyl)piperazine] | – | 1.43 µM | – | 0.4 µM | – | – | – | – | – | – | – | – | – | – | – | – | – | – | – | 0.63 µM | – |

Second part, led by results:

| IC50 (PC3 (prostate)) | IC50 (PANC-1 (pancreas)) | IC50 [1] | IC50 (MDA-MB-231 (breast)) | IC50 (HepG2 (liver)) | IC50 (OVCAR-3 (ovary)) | IC50 (HCT116 (colon)) | IC50 (A549 (lung)) | IC50 (HT-29 (colon)) | IC50 (MKN-45 (stomach)) | pIC50 (PC3 (prostate)) | pIC50 (PANC-1 (pancreas)) | pIC50 [1] | pIC50 (MDA-MB-231 (breast)) | pIC50 (HepG2 (liver)) | pIC50 (OVCAR-3 (ovary)) | pIC50 (HCT116 (colon)) | pIC50 (A549 (lung)) | Compound | IC50 (Caki-1 (kidney)) | IC50 (UMRC2 (kidney)) | further results |
| --- | --- | --- | --- | --- | --- | --- | --- | --- | --- | --- | --- | --- | --- | --- | --- | --- | --- | --- | --- | --- | --- |
| 0.063 µM | 0.07 µM | 0.063 µM | 0.032 µM | 0.045 µM | 0.023 µM | 0.047 µM | 0.055 µM | 0.048 µM | 0.04 µM | – | – | – | – | – | – | – | – | COc1cc(OC)cc(N2CCN(C(=O)Nc3nc4cc(C)ccc4nc3OC)CC2)c1 [Compound 47, 1-[(2-Methoxy-6-methylquinoxalin-3-yl)aminocarbonyl]-4-(3,5-dimethoxyphenyl)piperazine] | 0.029 µM | 0.039 µM | – |
| – | – | – | – | – | – | – | – | – | – | 6.46 | 6.44 | 6.62 | 6.80 | 6.64 | 6.85 | 6.60 | 6.62 | COc1cc(OC)cc(N2CCN(C(=O)Nc3nc4ccc(C)cc4nc3OC)CC2)c1 [Compound 131, 1-[(3-Methoxy-6-methylquinoxalin-2-yl)aminocarbonyl]-4-(3,5-dimethoxyphenyl)piperazine] | – | – | pIC50 (HT-29 (colon)): 6.47; pIC50 (MKN-45 (stomach)): 6.66; pIC50 (Caki-1 (kidney)): 6.72; pIC50 (UMRC2 (kidney)): 6.64 |
| – | – | – | – | – | – | – | – | – | – | 6.57 | 6.55 | 6.68 | 6.74 | 6.68 | 6.89 | 6.64 | 6.62 | COc1cc(OC)cc(N2CCN(C(=O)Nc3nc4ccc(Cl)cc4nc3OC)CC2)c1 [Compound 110, 1-[(6-Chloro-3-methoxyquinoxalin-2-yl)aminocarbonyl]-4-(3,5-dimethoxyphenyl)piperazine] | – | – | pIC50 (HT-29 (colon)): 6.60; pIC50 (MKN-45 (stomach)): 6.70; pIC50 (Caki-1 (kidney)): 6.74; pIC50 (UMRC2 (kidney)): 6.68 |

From US8598173B2, “1-[(6,7-substituted alkoxyquinoxalinyl)aminocarbonyl]-4-(hetero)arylpiperazine derivatives for treating tumors” (Korea Research Institute of Chemical Technology, priority 2004, dated 2013)
